{"source": "patent US10066004B2", "about": "(ARIZONA CANCER THERAPEUTICS, LLC, priority 2010, dated 2018)", "key": {"MDA-MB-468 cells [1]": {"system": "MDA-MB-468 cells", "assay": "MTT viability, EJ1 in combination with pathway inhibitors or ROS scavenger", "format": "cell-based", "settings": "MDA-MB-468, 20 μmol/l EJ1 plus inhibitor", "experimental": "(a) MDA-MB-468 cells were treated with either 20 μmol/l CP (A-D) or 20 μmol/l EJ1 (E-H) for 0 minutes (A, E), 15 minutes (B, F), 60 minutes (C, G), or 16 hours (D, H). Arrows indicate membrane blebs and arrowheads indicate intracellular vacuoles. (b) BxPC3 cells were serum starved overnight, then treated with 20 μmol/l EJ1 and 50 ng/ml Texas-Red-labeled EGF, and imaged for 30 minutes with an Olympus IX71 deconvolution microscope. Panels A-F are bright field images, D′-F′ are red channel images (Texas-Red-labeled EGF). Arrowheads indicate locations of EGF accumulation on membrane protrusions. (c) Diagram depicts Ca^2+/CaM-regulated signaling pathway, and inhibitors acting at different targets are indicated. (d) MDA-MB-468 cells were pretreated with 50 μmol/l W-13 (D-F), 10 μmol/l ML-7 (G-I), or 10 μmol/l Y-27632 (J-L) in complete medium at 37° C. for 30 minutes and then treated with vehicle, 20 μmol/l CP, or 20 μmol/l EJ1 in combination with W-13, ML-7, or Y-27632 in complete medium at 37° C. for 15 minutes. Images represent the bright field images. Arrows indicate membrane blebbing. (e) MDA-MB-468 cells were untreated (UNTX) or treated with water (Vehicle), 20 μmol/l EJ1, 10 μmol/l Y-27632, or 10 μmol/l ML-7 alone or EJ1 in combination with Y-27632 or ML-7, and the viability was assessed by the MTT assay. **P<0.01 (Student's t-test). Error bars, mean±SD. (f) MDA-MB-468 cells were either in serum-free medium (SF) or stimulated with 100 ng/ml EGF (EGF) and then incubated with water (Vehicle), 20 μmol/l CP, 20 μmol/l EJ1, 2 μmol/l ionomycin, 50 μmol/l W-13, 100 μmol/l KN-93, or EJ1 in combination with ionomycin for 15 minutes. Lysates were immunoblotted with antibodies as indicated. (g) Stable, neomycin-selected NIH3T3 cell lines were created, expressing either Rac1 wild-type (Rac1-WT) or Rac1 constitutively active mutant (Rac1-Q61L). Cells were treated with water (Vehicle), 20 μmol/l CP, or 20 μmol/l EJ1, and the viability was assessed by MTT. ***P<0.001 (Student's t-test). Error bars, mean±SD.\n(§1) (a) MDA-MB-468 cells were incubated in serum-free media with 200 nmol/l MitoTracker Red CMXRos and 5 μg/ml Hoechst 33342 nuclear stain, followed by either 20 μmol/l CP (A-B′) or 20 μmol/l EJ1 (C-D′), and imaged at 0 minutes (A, A′; and C, C′) or at 5 minutes (B, B′; and D, D′). (b) MDA-MB-468 cells were incubated with 1 μmol/l JC-1, followed by 20 μmol/l CP, 20 μmol/l EJ1, or 50 μmol/l CCCP. Results were calculated as the ratio of the 514/590 nm to 514/529 nm fluorescences and the ratio for CP-treated sample was set as 1. *P<0.05, Student's t-test. Error bars, mean±SD. […] Cells were then sorted by flow cytometer and analyzed by Cellquest Pro 4.0 software. The results are expressed as the percentage of DCFH fluorescence-positive cells. *P<0.05, Student's t-test. […]"}, "MDA-MB-468 cells [2]": {"system": "MDA-MB-468 cells", "assay": "Intracellular ROS by flow cytometry, DCFH-DA", "format": "cell-based", "settings": "20 μmol/l EJ1, 0.5 mmol/l NAC", "experimental": "as §1, with “mean±SD. (c) T47D cells were treated with MitoTracker (shown in D-F and F′) and Hoechst 33342 as in (a) and incubated with 20 μmol/l FITC-labeled EJ1 (shown in A-C and C′).” for “mean±SD.”\nGeneration of intracellular ROS was evaluated by flow cytometry using the 2′,7′-dichlorofluorescein diacetate probe (Invitrogen). Fluorescent cells were analyzed by a FACScan flow cytometer (BD Biosciences) at the Flow Cytometry Shared Service in the Arizona Cancer Center, and the excitation/emission wavelengths were set at 488 and 525 nm, respectively."}}}
{"smiles": "CC(=O)N[C@@H](CS)C(=O)O", "note": "[NAC, N-acetyl cysteine]", "values": [{"measurement": "effect of co-treatment on EJ1-induced loss of cell viability (MTT)", "setting": "MDA-MB-468 cells [1]", "result": "significantly rescue EJ1-induced cell death"}, {"measurement": "intracellular ROS levels (DCF fluorescence)", "setting": "MDA-MB-468 cells [2]", "result": "significantly reduced EJ1-induced ROS levels"}]}
